From patent publication US10710986B2, “PD-1/PD-L1 inhibitors” (Gilead Sciences, Inc., priority 2018, dated 2020)

biological target: PD-1/PD-L1 (Homo sapiens (Human), UniProt Q9NZQ7); test: PD-1/PD-L1 biochemical protein-protein interaction assay (ALPHA); settings: 0.3 nM His tagged PD-L1, 2.5 nM biotinylated Fc-PD-1, 60 minutes at 25° C., read-out: IC50 PD-L1-PD1
Sequence (Q9NZQ7 19-238): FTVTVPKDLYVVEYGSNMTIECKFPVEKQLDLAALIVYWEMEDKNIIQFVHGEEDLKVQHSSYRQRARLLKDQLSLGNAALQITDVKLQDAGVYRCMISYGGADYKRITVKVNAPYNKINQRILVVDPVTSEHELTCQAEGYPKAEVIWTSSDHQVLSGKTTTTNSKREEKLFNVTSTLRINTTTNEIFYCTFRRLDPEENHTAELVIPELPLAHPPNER

Compound	IC50 [nM]
COc1nc(-c2cccc(-c3cccc(-c4cnc(CNC[C@@H]5CCC(=O)N5)c(OC)n4)c3Cl)c2Cl)ccc1CN1CC(CO)C1 [compound 157]	0.064
COc1nc(-c2cccc(-c3cccc(-c4cnc(CNC[C@@H]5CCC(=O)N5)c(OC)n4)c3Cl)c2Cl)ccc1CN1CCC(C)(O)CC1 [compound 158]	0.162
COc1nc(-c2cccc(-c3cccc(-c4cnc(CNC[C@@H]5CCC(=O)N5)c(OC)n4)c3Cl)c2Cl)ccc1CN1CC[C@](C)(O)C1 [compound 159]	0.15
COc1nc(-c2cccc(-c3cccc(-c4cnc(CNC[C@@H]5CCC(=O)N5)c(OC)n4)c3Cl)c2Cl)ccc1CN1CCC(CO)CC1 [compound 160]	0.128
COc1nc(-c2cccc(-c3cccc(-c4cnc(CNC[C@@H]5CCC(=O)N5)c(OC)n4)c3Cl)c2Cl)ccc1CNCc1nc(=O)o[nH]1 [compound 161]	0.167
COc1nc(-c2cccc(-c3cccc(-c4cnc(CNC[C@@H]5CCC(=O)N5)c(OC)n4)c3Cl)c2Cl)ccc1CNC1CCOCC1 [compound 162]	0.116
COc1nc(-c2cccc(-c3cccc(-c4cnc(CNC[C@@H]5CCC(=O)N5)c(OC)n4)c3Cl)c2Cl)ccc1CN1CCC(C(N)=O)CC1 [compound 163]	0.177
COc1nc(-c2cccc(-c3cccc(-c4cnc(CNC[C@@H]5CCC(=O)N5)c(OC)n4)c3Cl)c2Cl)ccc1CN1CC(O)C1 [compound 164]	0.122
COc1nc(-c2cccc(-c3cccc(-c4cnc(CNC[C@@H]5CCC(=O)N5)c(OC)n4)c3Cl)c2Cl)ccc1CN[C@@H]1COC[C@H]1O [compound 165]	0.187
COc1nc(-c2cccc(-c3cccc(-c4cnc(CNC[C@@H]5CCC(=O)N5)c(OC)n4)c3Cl)c2Cl)ccc1CN[C@H]1CNC(=O)C1 [compound 166]	0.233
COc1nc(-c2cccc(-c3cccc(-c4cnc(CNC[C@@H]5CCC(=O)N5)c(OC)n4)c3Cl)c2Cl)ccc1CN[C@@H]1CNC(=O)C1 [compound 167]	0.262
COc1nc(-c2cccc(-c3cccc(-c4cnc(CNC[C@@H]5CCC(=O)N5)c(OC)n4)c3Cl)c2Cl)ccc1CN1CC2(CNC(=O)N2)C1 [compound 168]	0.196
COc1nc(-c2cccc(-c3cccc(-c4cnc(CNC[C@@H]5CCC(=O)N5)c(OC)n4)c3Cl)c2Cl)ccc1CN[C@H]1CCNC1=O [compound 169]	0.344
COc1nc(-c2cccc(-c3cccc(-c4cnc(CNC[C@@H]5CCC(=O)N5)c(OC)n4)c3Cl)c2Cl)ccc1CN[C@@H]1CCOC1 [compound 170]	0.227
COc1nc(-c2cccc(-c3cccc(-c4cnc(CNC[C@@H]5CCC(=O)N5)c(OC)n4)c3Cl)c2Cl)ccc1CN[C@H]1CCOC1 [compound 171]	0.208
COc1nc(-c2cccc(-c3cccc(-c4cnc(CNC[C@H]5C[C@@H](O)C5)c(OC)n4)c3Cl)c2Cl)cnc1CNC[C@@H]1CCC(=O)N1 [compound 172]	0.222
COc1nc(-c2cccc(-c3cccc(-c4cnc(CN5CC(OC)C5)c(OC)n4)c3Cl)c2Cl)cnc1CNC[C@@H]1CCC(=O)N1 [compound 173]	0.209
COc1nc(-c2cccc(-c3cccc(-c4cnc(CN5CCC(C)(O)C5)c(OC)n4)c3Cl)c2Cl)cnc1CNC[C@@H]1CCC(=O)N1 (some centres unmarked) [compound 174]	0.219
COc1nc(-c2cccc(-c3cccc(-c4cnc(CN5CC(C)(CO)C5)c(OC)n4)c3Cl)c2Cl)cnc1CNC[C@@H]1CCC(=O)N1 [compound 175]	0.11

Compound	IC50 [nM]
COc1nc(-c2cccc(-c3cccc(-c4cnc(CN5CC(CO)C5)c(OC)n4)c3Cl)c2Cl)cnc1CNC[C@@H]1CCC(=O)N1 [compound 176]	0.111
COc1nc(-c2cccc(-c3cccc(-c4cnc(CNC5CCC(F)C5)c(OC)n4)c3Cl)c2Cl)cnc1CNC[C@@H]1CCC(=O)N1 (some centres unmarked) [compound 177]	0.33
COc1nc(-c2cccc(-c3cccc(-c4cnc(CN[C@@H]5C[C@@H]5F)c(OC)n4)c3Cl)c2Cl)cnc1CNC[C@@H]1CCC(=O)N1 [compound 178]	0.553
COc1nc(-c2cccc(-c3cccc(-c4cnc(CNC[C@@H]5CCC(=O)N5)c(OC)n4)c3Cl)c2Cl)cnc1CNCC1CC1 [compound 179]	0.211
COc1nc(-c2cccc(-c3cccc(-c4cnc(CN[C@@H]5C[C@@H]5C(F)F)c(OC)n4)c3Cl)c2Cl)cnc1CNC[C@@H]1CCC(=O)N1 [compound 180]	1.03
COc1nc(-c2cccc(-c3cccc(-c4cnc(CNC(C)(C)C(F)F)c(OC)n4)c3Cl)c2Cl)cnc1CNC[C@@H]1CCC(=O)N1 [compound 181]	1.51
COc1nc(-c2cccc(-c3cccc(-c4cnc(CNC5CC5)c(OC)n4)c3Cl)c2Cl)cnc1CNC[C@@H]1CCC(=O)N1 [compound 184]	0.763
COCC1(NCc2ncc(-c3cccc(-c4cccc(-c5cnc(CNC[C@@H]6CCC(=O)N6)c(OC)n5)c4Cl)c3Cl)nc2OC)CCC1 [compound 185]	0.48
COc1nc(-c2cccc(-c3cccc(-c4cnc(CNC[C@H]5CCC[C@@H]5O)c(OC)n4)c3Cl)c2Cl)cnc1CNC[C@@H]1CCC(=O)N1 [compound 186]	0.1
COc1nc(-c2cccc(-c3cccc(-c4cnc(CN5C[C@H]6C[C@H]6[C@H]5CO)c(OC)n4)c3Cl)c2Cl)cnc1CNC[C@@H]1CCC(=O)N1 [compound 187]	0.28
COC(=O)NC1CCN(Cc2ncc(-c3cccc(-c4cccc(-c5cnc(CNC[C@@H]6CCC(=O)N6)c(OC)n5)c4Cl)c3Cl)nc2OC)C1 (some centres unmarked) [compound 188]	0.12
COc1nc(-c2cccc(-c3cccc(-c4cnc(CNCC5CN(C(C)=O)C5)c(OC)n4)c3Cl)c2Cl)cnc1CNCC1CN(C(C)=O)C1 [compound 189]	0.094
COc1nc(-c2cccc(-c3cccc(-c4cnc(CNC5CC6(C5)CN(C(C)=O)C6)c(OC)n4)c3Cl)c2Cl)cnc1CNC1CC2(C1)CN(C(C)=O)C2 (centres unmarked) [compound 190]	0.2
COc1nc(-c2cccc(-c3cccc(-c4cnc(CNC5CN(C(C)=O)C5)c(OC)n4)c3Cl)c2Cl)cnc1CNC[C@@H]1CCC(=O)N1 [compound 191]	0.143
COc1nc(-c2cccc(-c3cccc(-c4cnc(CN5CC6(C5)CN(C(C)=O)C6)c(OC)n4)c3Cl)c2Cl)cnc1CNC[C@H]1CCC(=O)N1 [compound 192]	0.156
COc1nc(-c2cccc(-c3cccc(-c4cnc(CN5CCC6(CNC(=O)C6)C5)c(OC)n4)c3Cl)c2Cl)cnc1CNC[C@H]1CCC(=O)N1 (some centres unmarked) [compound 193]	0.133
COc1nc(-c2cccc(-c3cccc(-c4cnc(CNC5CCN(C(C)=O)C5)c(OC)n4)c3Cl)c2Cl)cnc1CNC[C@H]1CCC(=O)N1 (some centres unmarked) [compound 194]	0.149
COc1nc(-c2cccc(-c3cccc(-c4cnc(CN[C@H]5CC[C@H](NC(C)=O)CC5)c(OC)n4)c3Cl)c2Cl)cnc1CNC[C@H]1CCC(=O)N1 [compound 195]	0.064
COc1nc(-c2cccc(-c3cccc(-c4cnc(CNC[C@H]5CCC(=O)N5)c(OC)n4)c3Cl)c2Cl)cnc1CNCC1CNC(=O)C1 (some centres unmarked) [compound 196]	0.17

Compound	IC50 [nM]
COc1nc(-c2cccc(-c3cccc(-c4cnc(CN5CCC6(CCC(=O)N6)C5)c(OC)n4)c3Cl)c2Cl)cnc1CNC[C@H]1CCC(=O)N1 (some centres unmarked) [compound 197]	0.23
COc1nc(-c2cccc(-c3cccc(-c4cnc(CN5CC[C@@H](NC(C)=O)C5)c(OC)n4)c3Cl)c2Cl)cnc1CNC[C@H]1CCC(=O)N1 [compound 198]	0.121
COc1nc(-c2cccc(-c3cccc(-c4cnc(CN[C@@H]5CNC(=O)C5)c(OC)n4)c3Cl)c2Cl)cnc1CNC[C@H]1CCC(=O)N1 [compound 199]	0.126
COc1nc(-c2cccc(-c3cccc(-c4cnc(CN[C@H]5CNC(=O)C5)c(OC)n4)c3Cl)c2Cl)cnc1CNC[C@H]1CCC(=O)N1 [compound 200]	0.132
COc1nc(-c2cccc(-c3cccc(-c4cnc(CNC[C@H]5CCC(=O)N5)c(OC)n4)c3Cl)c2Cl)cnc1CNCCc1ncc[nH]1 [compound 201]	0.28
COc1nc(-c2cccc(-c3cccc(-c4cnc(CNC5CCC6(CNC(=O)C6)C5)c(OC)n4)c3Cl)c2Cl)cnc1CNC[C@H]1CCC(=O)N1 (some centres unmarked) [compound 202]	0.144
COc1nc(-c2cccc(-c3cccc(-c4cnc(CN5CCC6(CCC(=O)N6)CC5)c(OC)n4)c3Cl)c2Cl)cnc1CNC[C@H]1CCC(=O)N1 [compound 203]	0.129
COc1nc(-c2cccc(-c3cccc(-c4cnc(CN5CC[C@H](NC(C)=O)C5)c(OC)n4)c3Cl)c2Cl)cnc1CNC[C@H]1CCC(=O)N1 [compound 204]	0.11
COc1nc(-c2cccc(-c3cccc(-c4cnc(CNC5CCCN(C(C)=O)C5)c(OC)n4)c3Cl)c2Cl)cnc1CNC[C@H]1CCC(=O)N1 (some centres unmarked) [compound 205]	0.079
COc1nc(-c2cccc(-c3cccc(-c4cnc(CNC5CCN(C(C)=O)CC5)c(OC)n4)c3Cl)c2Cl)cnc1CNC[C@H]1CCC(=O)N1 [compound 206]	0.113
COc1nc(-c2cccc(-c3cccc(-c4cnc(CN5CC6(CNC(=O)N6)C5)c(OC)n4)c3Cl)c2Cl)cnc1CNC[C@H]1CCC(=O)N1 [compound 207]	0.104
COc1nc(-c2cccc(-c3cccc(-c4cnc(CNC5CC6(C5)CN(C(C)=O)C6)c(OC)n4)c3Cl)c2Cl)cnc1CNC[C@H]1CCC(=O)N1 [compound 208]	0.223
COc1nc(-c2cccc(-c3cccc(-c4cnc(CN5CC6(C5)CN(C(C)=O)C6)c(OC)n4)c3Cl)c2Cl)cnc1CN1CC2(C1)CN(C(C)=O)C2 [compound 209]	0.175
COc1nc(-c2cccc(-c3cccc(-c4cnc(CNCC5(C)COC(=O)N5)c(OC)n4)c3Cl)c2Cl)cnc1CNC[C@@H]1CCC(=O)N1 (some centres unmarked) [compound 210]	0.3
COc1nc(-c2cccc(-c3cccc(-c4cnc(CNC[C@@H]5CCC(=O)N5)c(OC)n4)c3Cl)c2Cl)cnc1CNCCN1CCNC1=O [compound 211]	0.095
COc1nc(-c2cccc(-c3cccc(-c4cnc(CNC5CCc6cn[nH]c6C5)c(OC)n4)c3Cl)c2Cl)cnc1CNC[C@@H]1CCC(=O)N1 (some centres unmarked) [compound 212]	0.48
COc1nc(-c2cccc(-c3cccc(-c4cnc(CNCC5(C#N)CCC5)c(OC)n4)c3Cl)c2Cl)cnc1CNC[C@@H]1CCC(=O)N1 [compound 213]	0.84
COc1nc(-c2cccc(-c3cccc(-c4cnc(CNC[C@@H]5CCC(=O)N5)c(OC)n4)c3Cl)c2Cl)cnc1CNCCn1ccc(C)n1 [compound 214]	0.26
